The values below come from patent US20110034528A1, “Elansolids, Novel Natural Metabolites of Flexibacter and Antibiotically Active Derivatives Thereof” (priority 2008, published 2011).

The structures appear in SMILES notation. In brackets after ≈: the same amount, converted by molar mass.

Data set [1] deals with Micrococcus luteus. Description: Minimum inhibitory concentration (MIC) determination. It counts as cell-based. As for the experimental part:
(§1) The determination of minimum inhibitory concentrations was performed as described in J. Antimicrob. Chemother. 2001;48 Suppl 1:5-16.

Data set [2] concerns S. aureus MRS3 (clinical isolate of a multiresistant S. aureus). The data set is described as above. It counts as cell-based. The settings on record: Staphylococcus aureus. As for the experimental part: as §1
The subject of data set [3] is gram-positive bacteria. Kind of data set: Elansolid C1: antibiotic spectrum against gram positive bacteria. It counts as cell-based.
The test system of data set [4] is Chromobacterium violaceum. Kind of data set: Minimum inhibitory concentration (MIC) determination. It counts as cell-based. As to the method:
as §1

For data set [5], the system named is Corynebact. fascians. The data set is described as above. It counts as cell-based. As to the method:
as §1

Data set [6] concerns E. faecalis 25912. The data set is described as above. The settings on record: Enterococcus faecalis. It counts as cell-based. As for the experimental part: as §1
Data set [7] concerns Mycobacterium lacticola. The data set is described as above. It counts as cell-based. As to the method: as §1
Data set [8] relates to S. aureus 29213. The data set is described as above. It counts as cell-based. The settings on record: Staphylococcus aureus. As to the method:
as §1

Data set [9] is described as follows: Transformation of Elansolid A2 in solution. It counts as physicochemical. The settings on record: in solution (especially in DMSO).

A word on the MIC: it is the least concentration at which growth counts as inhibited. Low values mean greater potency, high ones weaker potency. Take `CC1=CC2C(C(C(Nc3ccccc3C(=O)O)c3ccc(O)cc3)C1\C=C/C=C/C=C\C(O)C(C)C(O)C/C=C(C)/C=C/C(=O)O)C(C)(C)CC2(C)O` (stereo not drawn) [Elansolid C1]: the MIC in [1] came to 0.4 mg/L (≈ 0.551 µM); in [2], 1.7 mg/L (≈ 2.34 µM). The Inhibition zone in [3] (Arthrobacter simplex) was found to be 25 mm; in data set [3] (Bacillus polymyxa), 20 mm; in data set [3] (Bacillus thuringiensis), 17 mm; in data set [3] (Brevibact. ammoniagenes), 17 mm; in data set [3] (Corynebact. fascians) it was 26 mm; in data set [3] (Micrococcus luteus), 27 mm. The Inhibition zone in data set [3] (Mycobact. chitae) is 15 mm; in data set [3] (Nocardia flava), 14 mm; in data set [3] (Staph. aureus) it was 11 mm; in [3] (Streptococcus faecalis) it was 14 mm. The “activity against selected gram-positive bacteria” value in [3] (selected gram-positive bacteria) is “bactericidal activity”.

Consider `CC1=CC2C(C3C1\C=C/C=C/C=C\C(O)C(C)C(O)C/C=C(C)/C=C/C(=O)OC3c1ccc(O)cc1)C(C)(C)CC2(C)O` (stereo not drawn) [Elansolid A2], for which the MIC in data set [4] was 3.3 mg/L (≈ 5.6 µM); in data set [5], 1.6 mg/L (≈ 2.72 µM); in data set [6], 64 mg/L (≈ 109 µM); in [1], 0.2 mg/L (≈ 0.34 µM); in data set [7], 3.3 mg/L (≈ 5.6 µM); in data set [8], 4 mg/L (≈ 6.79 µM). The same compound displayed an MIC in data set [2] of 0.8 mg/L (≈ 1.36 µM). In addition, the transformation in solution result in [9] was “transformed into Elansolid A1”.
